ChEMBL document CHEMBL4622913, “Synthesis and biological evaluation of arylphosphonium-benzoxaborole conjugates as novel anticancer agents” (Bioorg Med Chem Lett, 2020)
The source made the active and inactive calls. The calls are words filed in the database; no cut-off is given here.

Assays:
Type in all cases: functional, cell-based
MCF7 = test: Antiproliferative activity against human MCF7 cells assessed as reduction in cell viability after 72 hrs by MTT assay; conditions: MCF7, 72 h
MIA PaCa-2 = test: Antiproliferative activity against human MIAPaCa2 cells assessed as reduction in cell viability after 72 hrs by MTT assay; conditions: MIA PaCa-2, 72 h
WiDr [1] = test: Antiproliferative activity against human WiDr cells assessed as reduction in cell viability after 72 hrs by MTT assay
4T1 [2] = test: Antiproliferative activity against mouse 4T1 cells assessed as reduction in cell viability after 72 hrs by MTT assay; conditions: 4T1, 72 h
WiDr [3] = test: Induction of mitochondrial morphological changes in human WiDr cells assessed as fragmentation of mitochondrial networks at 100 uM after 24 hrs by mitotracker Red-CMXROS dye based epifluorescent microscopic analysis
4T1 [4] = test: Induction of mitochondrial morphological changes in mouse 4T1 cells assessed as fragmentation of mitochondrial networks at 100 uM after 24 hrs by mitotracker Red-CMXROS dye based epifluorescent microscopic analysis
4T1 [5] = test: Induction of glycolytic stress in mouse 4T1 cells assessed as increase in glycolysis at 50 to 100 uM in presence of glucose/oligomycin and 2-deoxyglucose by seahorse XFe96 analyser based assay
4T1 [6] = test: Induction of mitochondrial membrane damage in mouse 4T1 cells assessed as increase in proton leak at 50 to 100 uM in presence of oligomycin/FCCP/antimycin/rotenone by seahorse XFe96 analyser based assay
WiDr [7] = test: Induction of mitochondrial membrane damage in human WiDr cells assessed as increase in proton leak at 50 to 100 uM in presence of oligomycin/FCCP/antimycin/rotenone by seahorse XFe96 analyser based assay
WiDr [8] = test: Induction of mitochondrial stress in human WiDr cells assessed as effect on spare respiratory capacity at 50 to 100 uM in presence of oligomycin/FCCP/antimycin/rotenone by seahorse XFe96 analyser based assay
WiDr [9] = test: Induction of glycolytic stress in human WiDr cells assessed as reduction in glycolytic capacity at 100 uM in presence of glucose/oligomycin and 2-deoxyglucose by seahorse XFe96 analyser based assay
4T1 [10] = test: Induction of mitochondrial stress in mouse 4T1 cells assessed as reduction in maximal respiration at 100 uM in presence of oligomycin/FCCP/antimycin/rotenone by seahorse XFe96 analyser based assay
4T1 [11] = test: Induction of mitochondrial stress in mouse 4T1 cells assessed as effect on spare respiratory capacity at 50 to 100 uM in presence of oligomycin/FCCP/antimycin/rotenone by seahorse XFe96 analyser based assay
WiDr [12] = test: Induction of mitochondrial stress in human WiDr cells assessed as reduction in maximal respiration at 50 to 100 uM in presence of oligomycin/FCCP/antimycin/rotenone by seahorse XFe96 analyser based assay
WiDr [13] = test: Induction of glycolytic stress in human WiDr cells assessed as reduction in glycolytic reverse at 50 to 100 uM in presence of glucose/oligomycin and 2-deoxyglucose by seahorse XFe96 analyser based assay
WiDr [14] = test: Induction of glycolytic stress in human WiDr cells assessed as increase in glycolysis at 50 to 100 uM in presence of glucose/oligomycin and 2-deoxyglucose by seahorse XFe96 analyser based assay
4T1 [15] = test: Induction of glycolytic stress in mouse 4T1 cells assessed as reduction in glycolytic capacity at 50 to 100 uM in presence of glucose/oligomycin and 2-deoxyglucose by seahorse XFe96 analyser based assay
4T1 [16] = test: Induction of glycolytic stress in mouse 4T1 cells assessed as reduction in glycolytic reverse at 50 to 100 uM in presence of glucose/oligomycin and 2-deoxyglucose by seahorse XFe96 analyser based assay
4T1 [17] = test: Induction of mitochondrial stress in mouse 4T1 cells assessed as acute change in oxygen consumption rate by measuring reduction in ATP production at 100 uM in presence of oligomycin/FCCP/antimycin/rotenone by seahorse XFe96 analyser based assay
WiDr [18] = test: Induction of mitochondrial stress in human WiDr cells assessed as acute change in oxygen consumption rate by measuring reduction in ATP production at 50 to 100 uM in presence of oligomycin/FCCP/antimycin/rotenone by seahorse XFe96 analyser based assay

| SMILES | IC50 (MCF7) [µM] | IC50 (MIA PaCa-2) [µM] | IC50 (4T1 [2]) [µM] | IC50 (WiDr [1]) [µM] | Activity (WiDr [3]) | Activity (4T1 [4]) | Activity (4T1 [5]) | Activity (4T1 [6]) | Activity (WiDr [7]) | Activity (WiDr [8]) | Activity (WiDr [9]) | Activity (4T1 [10]) | Activity (4T1 [11]) | Activity (WiDr [12]) | Activity (WiDr [13]) | Activity (WiDr [14]) | Activity (4T1 [15]) | Activity (4T1 [16]) | Activity (4T1 [17]) | Activity (WiDr [18]) |
| --- | --- | --- | --- | --- | --- | --- | --- | --- | --- | --- | --- | --- | --- | --- | --- | --- | --- | --- | --- | --- |
| O=C(CC[P+](c1ccc(F)cc1)(c1ccc(F)cc1)c1ccc(F)cc1)Nc1ccc2c(c1)B(O)OC2 | > 100 | > 100 | > 100 | > 100 | inactive | inactive | – | – | – | – | – | – | – | – | – | – | – | – | – | – |
| COc1ccc([P+](CCC(=O)Nc2ccc3c(c2)B(O)OC3)(c2ccc(OC)cc2)c2ccc(OC)cc2)cc1 | > 100 | > 100 | > 100 | > 100 | – | – | – | – | – | – | – | – | – | – | – | – | – | – | – | – |
| Cc1ccc([P+](CCC(=O)Nc2ccc3c(c2)B(O)OC3)(c2ccc(C)cc2)c2ccc(C)cc2)cc1 | 46 | 44 | 50 | 24 | Active | Active | Active | Active | Active | inactive | Active | inactive | inactive | Active | Active | Active | inactive | Active | Active | Active |

More lines, main results first:

| IC50 (MCF7) [µM] | IC50 (MIA PaCa-2) [µM] | IC50 (4T1 [2]) [µM] | SMILES | IC50 (WiDr [1]) [µM] | Activity (WiDr [3]) | Activity (4T1 [4]) | Activity (4T1 [5]) | Activity (4T1 [6]) | Activity (WiDr [7]) | Activity (WiDr [8]) | Activity (WiDr [9]) | Activity (4T1 [10]) | Activity (4T1 [11]) | Activity (WiDr [12]) | Activity (WiDr [13]) | Activity (WiDr [14]) | Activity (4T1 [15]) | Activity (4T1 [16]) | Activity (4T1 [17]) | Activity (WiDr [18]) |
| --- | --- | --- | --- | --- | --- | --- | --- | --- | --- | --- | --- | --- | --- | --- | --- | --- | --- | --- | --- | --- |
| > 100 | > 100 | > 100 | O=C(CCBr)Nc1ccc2c(c1)B(O)OC2 | > 100 | – | – | – | – | – | – | – | – | – | – | – | – | – | – | – | – |
| > 100 | > 100 | > 100 | O=C(CC[P+](c1ccccc1)(c1ccccc1)c1ccccc1)Nc1ccc2c(c1)B(O)OC2 | > 100 | inactive | inactive | – | – | – | – | – | – | – | – | – | – | – | – | – | – |
| > 100 | > 100 | > 100 | O=C(CC[P+](c1ccccc1)(c1ccccc1)C1CCCCC1)Nc1ccc2c(c1)B(O)OC2 | > 100 | – | – | – | – | – | – | – | – | – | – | – | – | – | – | – | – |
